Experimental data reported in ChEMBL document CHEMBL3102837, “Synthesis of novel indenoquinoxaline derivatives as potent α-glucosidase inhibitors” (Bioorg Med Chem, 2014).
Activity calls are given as the source filed them. The calls are words filed in the database; no cut-off is given here.

Organism: Homo sapiens
Assay: Inhibition of alpha-chymotrypsin (unknown origin)
Conditions: not given

| inhibition | Structure (SMILES) |
| --- | --- |
| Active | O=C(N/N=C1/c2ccccc2-c2nc3ccccc3nc21)c1cccc(Br)c1 |
| Active | O=C(N/N=C1/c2ccccc2-c2nc3ccccc3nc21)c1cccc(I)c1 |
| Active | O=C(N/N=C1/c2ccccc2-c2nc3ccccc3nc21)c1ccccc1[N+](=O)[O-] |
| Active | COc1ccc(C(=O)N/N=C2/c3ccccc3-c3nc4ccccc4nc32)cc1O |
| Active | O=C(N/N=C1/c2ccccc2-c2nc3ccccc3nc21)c1ccc(O)cc1 |
| Active | O=C(N/N=C1/c2ccccc2-c2nc3ccccc3nc21)c1ccc([N+](=O)[O-])cc1 |
| Active | Nc1ccccc1C(=O)N/N=C1/c2ccccc2-c2nc3ccccc3nc21 |
| Active | O=C(N/N=C1/c2ccccc2-c2nc3ccccc3nc21)c1ccc(Cl)cc1 |
| Active | O=C(N/N=C1/c2ccccc2-c2nc3ccccc3nc21)c1ccccc1Br |
| Active | O=C(N/N=C1/c2ccccc2-c2nc3ccccc3nc21)c1cccc(Cl)c1 |
| Active | O=C(N/N=C1/c2ccccc2-c2nc3ccccc3nc21)c1ccccc1Cl |
| Active | O=C(N/N=C1/c2ccccc2-c2nc3ccccc3nc21)c1ccccc1 |
| Active | O=C(N/N=C1/c2ccccc2-c2nc3ccccc3nc21)c1cccc(F)c1 |
| Active | c1ccc2c(c1)/C(=N/N=C1\c3ccccc3-c3nc4ccccc4nc31)c1nc3ccccc3nc1-2 |
| Active | Cc1ccc(C(=O)N/N=C2/c3ccccc3-c3nc4ccccc4nc32)cc1 |
| Active | O=C(N/N=C1/c2ccccc2-c2nc3ccccc3nc21)c1ccc(I)cc1 |
| Active | O=C(N/N=C1/c2ccccc2-c2nc3ccccc3nc21)c1ccc(F)cc1 |
| Active | O=C(N/N=C1/c2ccccc2-c2nc3ccccc3nc21)c1ccc(Br)cc1 |

What follows are compounds tested against T1, Tyrosinase (Homo sapiens) (UniProt P14679) (assay: Inhibition of tyrosinase (unknown origin)). Conditions: not given.
T1 sequence (whole entry): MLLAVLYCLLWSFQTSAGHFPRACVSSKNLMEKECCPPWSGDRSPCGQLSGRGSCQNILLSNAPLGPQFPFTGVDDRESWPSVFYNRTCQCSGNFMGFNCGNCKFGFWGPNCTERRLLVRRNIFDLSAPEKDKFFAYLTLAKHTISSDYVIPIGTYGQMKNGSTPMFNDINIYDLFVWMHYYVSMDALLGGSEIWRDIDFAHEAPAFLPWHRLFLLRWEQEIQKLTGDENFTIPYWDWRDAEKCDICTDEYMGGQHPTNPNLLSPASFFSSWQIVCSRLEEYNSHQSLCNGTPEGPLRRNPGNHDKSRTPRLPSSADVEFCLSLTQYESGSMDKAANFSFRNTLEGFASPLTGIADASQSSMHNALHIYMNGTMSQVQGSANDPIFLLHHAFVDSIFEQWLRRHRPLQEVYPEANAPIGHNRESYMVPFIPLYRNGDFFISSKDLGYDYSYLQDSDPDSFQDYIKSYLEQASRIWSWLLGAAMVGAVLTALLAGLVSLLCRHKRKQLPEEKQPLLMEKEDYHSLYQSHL

| inhibition | Structure (SMILES) |
| --- | --- |
| inactive | O=C(N/N=C1/c2ccccc2-c2nc3ccccc3nc21)c1cccc(Br)c1 |
| inactive | O=C(N/N=C1/c2ccccc2-c2nc3ccccc3nc21)c1cccc(I)c1 |
| inactive | O=C(N/N=C1/c2ccccc2-c2nc3ccccc3nc21)c1ccccc1[N+](=O)[O-] |
| inactive | COc1ccc(C(=O)N/N=C2/c3ccccc3-c3nc4ccccc4nc32)cc1O |
| inactive | O=C(N/N=C1/c2ccccc2-c2nc3ccccc3nc21)c1ccc(O)cc1 |
| inactive | O=C(N/N=C1/c2ccccc2-c2nc3ccccc3nc21)c1ccc([N+](=O)[O-])cc1 |
| inactive | Nc1ccccc1C(=O)N/N=C1/c2ccccc2-c2nc3ccccc3nc21 |
| inactive | O=C(N/N=C1/c2ccccc2-c2nc3ccccc3nc21)c1ccc(Cl)cc1 |
| inactive | O=C(N/N=C1/c2ccccc2-c2nc3ccccc3nc21)c1ccccc1Br |
| inactive | O=C(N/N=C1/c2ccccc2-c2nc3ccccc3nc21)c1cccc(Cl)c1 |
| inactive | O=C(N/N=C1/c2ccccc2-c2nc3ccccc3nc21)c1ccccc1Cl |
| inactive | O=C(N/N=C1/c2ccccc2-c2nc3ccccc3nc21)c1ccccc1 |
| inactive | O=C(N/N=C1/c2ccccc2-c2nc3ccccc3nc21)c1cccc(F)c1 |
| inactive | c1ccc2c(c1)/C(=N/N=C1\c3ccccc3-c3nc4ccccc4nc31)c1nc3ccccc3nc1-2 |
| inactive | Cc1ccc(C(=O)N/N=C2/c3ccccc3-c3nc4ccccc4nc32)cc1 |
| inactive | O=C(N/N=C1/c2ccccc2-c2nc3ccccc3nc21)c1ccc(I)cc1 |
| inactive | O=C(N/N=C1/c2ccccc2-c2nc3ccccc3nc21)c1ccc(F)cc1 |
| inactive | O=C(N/N=C1/c2ccccc2-c2nc3ccccc3nc21)c1ccc(Br)cc1 |

Each compound was assayed against Alpha-glucosidase MAL12 (Saccharomyces cerevisiae S288c, UniProt P53341) (assay: Inhibition of Saccharomyces cerevisiae alpha-glucosidase using p-nitrophenyl-alpha-D-glucopyranoside as substrate preincubated for 10 mins measured after 30 mins). Conditions: not given.
Chain of Alpha-glucosidase MAL12 (P53341 whole entry): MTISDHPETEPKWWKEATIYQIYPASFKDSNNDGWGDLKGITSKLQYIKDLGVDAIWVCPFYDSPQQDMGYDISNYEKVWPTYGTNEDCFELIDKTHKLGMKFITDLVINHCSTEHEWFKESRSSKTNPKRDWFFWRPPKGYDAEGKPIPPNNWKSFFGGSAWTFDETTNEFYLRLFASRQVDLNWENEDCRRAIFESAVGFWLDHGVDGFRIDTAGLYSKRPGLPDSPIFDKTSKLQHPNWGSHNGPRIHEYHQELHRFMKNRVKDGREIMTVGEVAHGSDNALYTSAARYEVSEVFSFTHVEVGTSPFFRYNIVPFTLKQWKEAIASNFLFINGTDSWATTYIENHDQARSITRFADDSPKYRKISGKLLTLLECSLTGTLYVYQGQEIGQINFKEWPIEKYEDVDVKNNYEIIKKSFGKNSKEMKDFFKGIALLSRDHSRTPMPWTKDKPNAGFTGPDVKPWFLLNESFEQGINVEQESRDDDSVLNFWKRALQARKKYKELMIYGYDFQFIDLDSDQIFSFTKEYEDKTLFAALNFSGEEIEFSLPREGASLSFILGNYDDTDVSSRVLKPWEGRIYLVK

| IC50 | Structure (SMILES) |
| --- | --- |
| Not Active | COc1ccc(C(=O)N/N=C2/c3ccccc3-c3nc4ccccc4nc32)cc1O |
| Not Active | O=C(N/N=C1/c2ccccc2-c2nc3ccccc3nc21)c1ccccc1 |

Same assay, conditions: read-out: IC50

| IC50 [µM] | Structure (SMILES) |
| --- | --- |
| 113 | O=C(N/N=C1/c2ccccc2-c2nc3ccccc3nc21)c1cccc(Br)c1 |
| 77.5 | O=C(N/N=C1/c2ccccc2-c2nc3ccccc3nc21)c1cccc(I)c1 |
| 23.5 | O=C(N/N=C1/c2ccccc2-c2nc3ccccc3nc21)c1ccccc1[N+](=O)[O-] |
| 102 | O=C(N/N=C1/c2ccccc2-c2nc3ccccc3nc21)c1ccc(O)cc1 |
| 29.5 | O=C(N/N=C1/c2ccccc2-c2nc3ccccc3nc21)c1ccc([N+](=O)[O-])cc1 |
| 62.3 | Nc1ccccc1C(=O)N/N=C1/c2ccccc2-c2nc3ccccc3nc21 |
| 99.9 | O=C(N/N=C1/c2ccccc2-c2nc3ccccc3nc21)c1ccc(Cl)cc1 |
| 23.1 | O=C(N/N=C1/c2ccccc2-c2nc3ccccc3nc21)c1ccccc1Br |
| 105 | O=C(N/N=C1/c2ccccc2-c2nc3ccccc3nc21)c1cccc(Cl)c1 |
| 25.9 | O=C(N/N=C1/c2ccccc2-c2nc3ccccc3nc21)c1ccccc1Cl |
| 90.9 | O=C(N/N=C1/c2ccccc2-c2nc3ccccc3nc21)c1cccc(F)c1 |
| 18.2 | c1ccc2c(c1)/C(=N/N=C1\c3ccccc3-c3nc4ccccc4nc31)c1nc3ccccc3nc1-2 |
| > 500 | Cc1ccc(C(=O)N/N=C2/c3ccccc3-c3nc4ccccc4nc32)cc1 |
| 62.5 | O=C1c2ccccc2-c2nc3ccccc3nc21 |
| 37.7 | O=C(N/N=C1/c2ccccc2-c2nc3ccccc3nc21)c1ccc(I)cc1 |
| 53.4 | O=C(N/N=C1/c2ccccc2-c2nc3ccccc3nc21)c1ccc(F)cc1 |
| 22.7 | O=C(N/N=C1/c2ccccc2-c2nc3ccccc3nc21)c1ccc(Br)cc1 |
